In US20140065103A1 (VERTEX PHARMACEUTICALS INCORPORATED, priority 2010, published 2014):
Like-named read-outs stand apart in the source and are kept apart here.

Experiments:
[1] = test system: HCV sub-genomic replicon of genotype 1a in replicon cell line W11.8; test: microbe, parasite or virus in culture; assay type: cell-based, Hepatitis C virus; conditions: read-out: HCV-Replicon-ELISA-1a IC50
[2] = test system: Huh-7 ET, Molt-4, DU-145, Hep-G2 and SH-SY5Y cells; test: [3H]Thymidine incorporation assay (cytotoxicity, CC50); conditions: [3H]thymidine incorporation; cell line not given
[3] = as above; conditions: human
[4] = test system: HCV replicon (genotype 1b) in Huh7 hepatoma cell line ET; test: microbe, parasite or virus in culture; assay type: cell-based, Hepatitis C virus; conditions: Hepatitis C virus, Huh-7, 96 h, read-out: HCV-Replicon-1b_IC50

Molecule “3-[Cyclohex-3-enyl-(trans-4-methyl-cyclohexanecarbonyl)-amino]-5-(3,3-dimethyl-but-1-ynyl)-thiophene-2-carboxylic acid [Compound 13]” has an IC50 [1] of 1 to 10 µM and a CC50 [2] of 10 to 100 µM.

“5-(3,3-dimethylbut-1-yn-1-yl)-3-(trans-4-methyl-N-((S)-1-methylsulfonyl)pyrrolidin-3-yl)thiophene-2-carboxylic acid [Compound 68]” gave an IC50 [1] of under 0.1 µM and a CC50 [2] of over 100 µM.

Molecule “5-(3,3-dimethylbut-1-yn-1-yl)-3-(trans-4-methyl-N—((R)-1-methylsulfonyl)pyrrolidin-3-yl)thiophene-2-carboxylic acid [Compound 69]” has an IC50 [1] of under 0.1 µM and a CC50 [2] of over 100 µM.

CC[C@@H](C(=O)O)N(c1cc(C#CC(C)(C)C)sc1C(=O)O)C(=O)[C@H]1CC[C@H](C)CC1 (relative stereo) [Compound 41, 3-(N—((S)-1-carboxypropyl)-(4-trans-methylcyclohexane)-carboxamido)-5-(3,3-dimethylbut-1-yn-1-yl)thiophene-2-carboxylic acid] gave an IC50 [1] of under 0.1 µM and a CC50 [2] of over 100 µM.

CC(=O)N1CC[C@H](N(c2cc(C#CC(C)(C)C)sc2C(=O)O)C(=O)[C@H]2CC[C@H](C)CC2)C1 (stereo in doubt) [Compound 59, 3-(N—((S)-1-Acetylpyrrolidin-3-yl)-4-trans-methylcyclohexanecarboxamido)-5-(3,3-dimethylbut-1-yn-1-yl)thiophene-2-carboxylic acid] showed an IC50 [1] of under 0.1 µM and a CC50 [2] of over 100 µM.

With CC(=O)N1CC[C@@H](N(c2cc(C#CC(C)(C)C)sc2C(=O)O)C(=O)[C@H]2CC[C@H](C)CC2)C1 (stereo in doubt) [Compound 60, 3-(N—((R)-1-Acetylpyrrolidin-3-yl)-4-trans-methylcyclohexane-carboxamido)-5-(3,3-dimethylbut-1-yn-1-yl)thiophene-2-carboxylic acid] the IC50 [1] was 0.1 to 1 µM and the CC50 [2] was over 100 µM.

Molecule COCCN(c1cc(C#CC(C)(C)C)sc1C(=O)O)C(=O)[C@H]1CC[C@H](C)CC1 [Compound 29, 5-(3,3-Dimethylbut-1-ynyl)-3-(N-(2-methoxyethyl)-4-trans-methylcyclohexanecarboxamido)thiophene-2-carboxylic acid] has an IC50 [1] of under 0.1 µM and a CC50 [2] of 10 to 100 µM.

Molecule COCC(COC)N(c1cc(C#CC(C)(C)C)sc1C(=O)O)C(=O)[C@H]1CC[C@H](C)CC1 [Compound 39, 3-(-N-(1,3-Dimethoxypropan-2-yl)-4-trans-methylcyclohexanecarboxamido)-5-(3,3-dimethylbut-1-yn-1-yl)thiophene-2-carboxylic acid] has an IC50 [1] of 0.1 to 1 µM and a CC50 [2] of 10 to 100 µM.

With CC(C)C#Cc1cc(N(C(=O)[C@H]2CC[C@H](C)CC2)C2CCOCC2)c(C(=O)O)s1 [Compound 43, 3-(N-(tetrahydro-2H-pyran-4-yl)-4-trans-methyl-cyclohexanecarboxamido)-5-(3-methylbut-1-yn-1-yl)thiophene-2-carboxylic acid] the IC50 [1] was under 0.1 µM and the CC50 [2] was 10 to 100 µM.

Work on Cc1noc(C)c1CN(c1cc(C#CC(C)(C)C)sc1C(=O)O)C(=O)[C@H]1CC[C@H](C)CC1 [Compound 54, 5-(3,3-Dimethylbut-1-yn-1-yl)-3-(N-((3,5-dimethylisoxazol-4-yl)methyl)-4-trans-methylcyclohexanecarboxamido)thiophene-2-carboxylic acid] yielded an IC50 [1] of under 0.1 µM and a CC50 [2] of 10 to 100 µM.

For CC(C)C#Cc1cc(N(C(=O)[C@H]2CC[C@H](C)CC2)[C@H]2CC[C@@H](OCCO)CC2)c(C(=O)O)s1 [Compound 61, 5-(3-Methylbut-1-yn-1-yl)-3-((N-4-cis-(2-hydroxy)-ethoxycyclohexyl)-(4-trans-methylcyclohexane)carboxamido)thiophene-2-carboxylic acid], the IC50 [1] was 0.1 to 1 µM and the CC50 [2] was 10 to 100 µM.

CC(C)C#Cc1cc(N(C(=O)[C@H]2CC[C@H](C)CC2)[C@H]2CC[C@H](OCCO)CC2)c(C(=O)O)s1 [Compound 62, 5-(3-Methylbut-1-yn-1-yl)-3-((N-4-trans-(2-hydroxy)-ethoxycyclohexyl)-(4-trans-methylcyclohexane)carboxamido)thiophene-2-carboxylic acid] gave an IC50 [1] of under 0.1 µM and a CC50 [2] of 10 to 100 µM.

For CN(C)C(=O)[C@H]1C[C@H](N(c2cc(C#CC(C)(C)C)sc2C(=O)O)C(=O)[C@H]2CC[C@H](C)CC2)C1 [Compound 63, 5-(3,3-Dimethylbut-1-yn-1-yl)-3-(N-(3-trans-(dimethylcarbamoyl)-cyclobutyl)-4-trans-methylcyclohexanecarboxamido)thiophene-2-carboxylic acid], the IC50 [1] was under 0.1 µM and the CC50 [2] was over 100 µM.

Molecule CN(C)C[C@H]1C[C@H](N(c2cc(C#CC(C)(C)C)sc2C(=O)O)C(=O)[C@H]2CC[C@H](C)CC2)C1 [Compound 70, 5-(3,3-Dimethylbut-1-yn-1-yl)-3-(trans-4-methyl-N((trans-3-(dimethylamino)methyl)cyclobutyl)cyclohexanecarboxamido)thiophene-2 carboxylic acid] has an IC50 [1] of under 0.1 µM and a CC50 [2] of over 100 µM.

CC(CN(c1cc(C#CC(C)(C)C)sc1C(=O)O)C(=O)[C@H]1CC[C@H](C)CC1)n1cccn1 (stereo partly drawn) [Compound 73, 5-(3,3-Dimethylbut-1-ynyl)-3-[(4-trans-methylcyclohexanecarbonyl)-(2-pyrazol-1-ylpropyl)amino]thiophene-2-carboxylic acid] gave an IC50 [1] of under 0.1 µM and a CC50 [2] of 10 to 100 µM.

In the case of CC(C)(C)C#Cc1cc(N(Cc2ccccc2)C(=O)[C@H]2CC[C@H](C)CC2)c(C(=O)O)s1 [Compound 74, 3-[Benzyl-(4-trans-methylcyclohexanecarbonyl)amino]-5-(3,3-dimethylbut-1-ynyl)thiophene-2-carboxylic acid], the IC50 [1] is reported as 0.1 to 1 µM and the CC50 [2] is reported as 10 to 100 µM.

CCc1noc(C(C)N(c2cc(C#CC(C)(C)C)sc2C(=O)O)C(=O)[C@H]2CC[C@H](C)CC2)n1 (stereo partly drawn) [Compound 75] gave an IC50 [1] of under 0.1 µM and a CC50 [2] of 10 to 100 µM.

CC(C)(C)C#Cc1cc(N(C(=O)[C@H]2CC[C@H](C)CC2)[C@H]2C[C@@H](CO)C2)c(C(=O)O)s1 [Compound 76, 5-(3,3-dimethylbut-1-yn-1-yl)-3-(trans-4-methyl-N-(cis-3-(hydroxymethyl)cyclobutyl)cyclohexanecarboxamido)thiophene-2-carboxylic acid] showed an IC50 ([1]; Hepatitis C virus, W11.8, 96 h) of under 0.1 µM and a CC50 at 72 h [3] of over 100 µM.

Cn1nccc1CN(c1cc(C#CC(C)(C)C)sc1C(=O)O)C(=O)[C@H]1CC[C@H](C)CC1 [Compound 77, 5-(3,3-Dimethylbut-1-ynyl)-3-((trans)-4-methyl-N-((1-methyl-1H-pyrazol-5-yl)methyl)cyclohexanecarboxamido)thiophene-2-carboxylic acid] gave an IC50 ([1]; Hepatitis C virus, W11.8, 96 h) of under 0.1 µM and a CC50 at 72 h [3] of over 100 µM.

For CCc1noc(CN(c2cc(C#CC(C)(C)C)sc2C(=O)O)C(=O)[C@H]2CC[C@H](C)CC2)n1 [Compound 78, 5-(3,3-dimethylbut-1-ynyl)-3-[(3-ethyl-1,2,4-oxadiazol-5-yl)methyl-(4-trans-methylcyclohexanecarbonyl)amino]thiophene-2-carboxylic acid], the IC50 [1] was under 0.1 µM and the CC50 [2] was 10 to 100 µM.

Molecule CC(C)c1noc(C(C)N(c2cc(C#CC(C)(C)C)sc2C(=O)O)C(=O)[C@H]2CC[C@H](C)CC2)n1 (stereo partly drawn) [Compound 79] has an IC50 [1] of 0.1 to 1 µM and a CC50 [2] of 10 to 100 µM.

CC(Cn1cccn1)N(c1cc(C#CC(C)(C)C)sc1C(=O)O)C(=O)[C@H]1CC[C@H](C)CC1 (stereo partly drawn) [Compound 80, 5-(3,3-Dimethylbut-1-ynyl)-3-[(4-trans-methylcyclohexanecarbonyl)-(1-methyl-2-pyrazol-1-yl-ethyl)amino]thiophene-2-carboxylic acid] gave an IC50 [1] of under 0.1 µM and a CC50 [2] of 10 to 100 µM.

For CC(C)(C)C#Cc1cc(N(C(=O)c2ccc(C(F)(F)F)cc2)[C@H]2CC[C@H](O)CC2)c(C(=O)O)s1 [Compound 82, 5-(3,3-Dimethyl-but-1-ynyl)-3-[(trans-4-hydroxy-cyclohexyl)-(4-trifluoromethyl-benzoyl)-amino]thiophene-2-carboxylic acid], the IC50 ([1]; Hepatitis C virus, W11.8, 96 h) was 0.1 to 1 µM and the CC50 at 72 h [3] was 10 to 100 µM.

Cc1ccc(C(=O)N(c2cc(C#CC(C)(C)C)sc2C(=O)O)[C@H]2CC[C@H](O)CC2)c(C)c1 [Compound 83, 3-[(2,4-Dimethyl-benzoyl)-(trans-4-hydroxy-cyclohexyl)-amino]-5-(3,3-dimethyl-but-1-ynyl)-thiophene-2-carboxylic acid] gave an IC50 [4] of 0.1 to 1 µM.

Molecule Cc1ccc(C(=O)N(c2cc(C#CC(C)(C)C)sc2C(=O)O)[C@H]2CC[C@H](O)CC2)c(F)c1 [Compound 85, 5-(3,3-Dimethyl-but-1-ynyl)-3-[(2-fluoro-4-methyl-benzoyl)-(trans-4-hydroxy-cyclohexyl)-amino]thiophene-2-carboxylic acid] has an IC50 ([1]; Hepatitis C virus, W11.8, 96 h) of under 0.1 µM and a CC50 at 72 h [3] of 10 to 100 µM.

Work on Cc1ccc(C(=O)N(c2cc(C#CC(C)(C)C)sc2C(=O)O)[C@H]2CC[C@H](O)CC2)cc1 [Compound 86, 5-(3,3-Dimethyl-but-1-ynyl)-3-[(trans-4-hydroxy-cyclohexyl)-(4-methyl-benzoyl)-amino]-thiophene-2-carboxylic acid] yielded an IC50 ([1]; Hepatitis C virus, W11.8, 96 h) of under 0.1 µM and a CC50 at 72 h [3] of 10 to 100 µM.

CC(C)(C)C#Cc1cc(N(C(=O)c2ccc(Cl)cc2Cl)[C@H]2CC[C@H](O)CC2)c(C(=O)O)s1 [Compound 90, 3-[(2,4-Dichloro-benzoyl)-(trans-4-hydroxy-cyclohexyl)-amino]-5-(3,3-dimethyl-but-1-ynyl)-thiophene-2-carboxylic acid] showed an IC50 ([1]; Hepatitis C virus, W11.8, 96 h) of 0.1 to 1 µM and a CC50 at 72 h [3] of 10 to 100 µM.

Work on Cc1ccc(C(=O)N(c2cc(C#CC(C)(C)C)sc2C(=O)O)[C@H]2CC[C@H](O)CC2)cc1F [Compound 93, 5-(3,3-Dimethyl-but-1-ynyl)-3-[(3-fluoro-4-methyl-benzoyl)-(trans-4-hydroxy-cyclohexyl)-amino]thiophene-2-carboxylic acid] yielded an IC50 [4] of 0.1 to 1 µM.
